# In patent US20240360114A1 (SIRONAX LTD., priority 2021, published 2024):
# System: HT-1080 cells
# Test: HT-1080 cell viability assay (ferroptosis induced by RSL3, Cell Titer-Glo)
# Assay type: cell-based
# Details: Homo sapiens, HT-1080, 20 h, ferroptosis inducer RSL3, 20 hours, ferroptosis inhibitory activity, Table 2
# Summary of the method: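 EC50 fitted by sigmoidal dose-response regression on luminescent viability data normalized to untreated cells. Compounds ran as a 10-point, 3-fold series from 1.1 μM alongside RSL3 for 20 hours, after overnight seeding.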
row,Structure (SMILES),EC50
1,"CC1CN(c2ncc3cc(NC4CC5(CC(N)C5)C4)ccc3n2)CC(C)O1 (centres unmarked) [Compound 571, N^2-(2-(2,6-dimethylmorpholino)quinazolin-6-yl)spiro[3.3]heptane-2,6-diamine]",0.1 to 100 nM
2,"COC(=O)C1CCC(Nc2ccc(N3CCC(C(F)(F)F)CC3)cc2)CC1 (centres unmarked) [Compound 6A, methyl 4-((4-(4-(trifluoromethyl)piperidin-1-yl)phenyl)amino)cyclohexane-1-carboxylate]",0.1 to 100 nM
3,"Cc1nc(N2CC3CCC(C2)O3)ccc1NC1CC2(CC(N)C2)C1 (centres unmarked) [Compound 486, N2-(6-(8-oxa-3-azabicyclo[3.2.1]octan-3-yl)-2-methylpyridin-3-yl)spiro[3.3]heptane-2,6-diamine]",0.1 to 100 nM
4,"CCC(CC)c1ccc(NC2CCC(CN)CC2)cc1 (single isomer, unassigned) [Compound 81A, N-(4-(aminomethyl)cyclohexyl)-4-(pentan-3-yl)aniline]",100 to 1000 nM
5,"Cc1nc(N2CCC(C(F)(F)F)CC2)ccc1NC1CCC(CN)CC1 (centres unmarked) [Compound 25, N-(4-(aminomethyl)cyclohexyl)-2-methyl-6-(4-(trifluoromethyl)piperidin-1-yl)pyridin-3-amine]",0.1 to 100 nM
6,"OC1CCCCC1Nc1ccc(N2CCC(C(F)(F)F)CC2)cc1 (centres unmarked) [Compound 415, 2-((4-(4-(trifluoromethyl)piperidin-1-yl)phenyl)amino)cyclohexan-1-ol]",0.1 to 100 nM
7,"CC(C)(C)c1ccc(NC2CCC(NC(=O)C3CNCCN3)CC2)cc1 (centres unmarked) [Compound 215, N-(4-((4-(tert-butyl)phenyl)amino)cyclohexyl) piperazine-2-carboxamide]",0.1 to 100 nM
8,"COCCOc1cc(NC2CCC(N)CC2)ccc1N1CCC(C(F)(F)F)CC1 (centres unmarked) [Compound 473, N1-(3-(2-methoxyethoxy)-4-(4-(trifluoromethyl)piperidin-1-yl)phenyl)cyclohexane-1,4-diamine]",0.1 to 100 nM
9,"CC1CN(c2ccc(NC[C@H]3CC[C@H](N)CC3)c(F)c2)CC(C)O1 (some centres unmarked) [Compound 431, N-(((1r,4r)-4-aminocyclohexyl)methyl)-4-(2,6-dimethylmorpholino)-2-fluoroaniline]",0.1 to 100 nM
10,"CC1CN(c2ccc(NC3CC(N)C3)c(F)c2)CC(C)O1 (centres unmarked) [Compound 462, N1-(4-(2,6-dimethylmorpholino)-2-fluorophenyl)cyclobutane-1,3-diamine]",1000 to 10000 nM
11,"CCCc1ccc(NC[C@H]2CC[C@H](N)CC2)cc1 [Compound 315, N-(((1r,4r)-4-aminocyclohexyl)methyl)-4-propylaniline]",0.1 to 100 nM
12,"CN1CC(C)(C)c2ccc(NC3CCC(N)CC3)cc21 (centres unmarked) [Compound 343, N1-(1,3,3-trimethylindolin-6-yl)cyclohexane-1,4-diamine]",0.1 to 100 nM
13,"CC(C)(C)c1ccc(NCCOCCO)cc1 [Compound 179, 2-(2-((4-(tert-butyl)phenyl)amino)ethoxy) ethan-1-ol]",1000 to 10000 nM
14,"Cc1cc(NC2CCCCC2C(N)=O)ccc1N1CCC(C)CC1 (centres unmarked) [Compound 492, 2-((3-methyl-4-(4-methylpiperidin-1-yl)phenyl)amino)cyclohexane-1-carboxamide]",0.1 to 100 nM
15,"CC1(C)CCN(c2ncc(NC3CCC(N)CC3)cn2)CC1 (centres unmarked) [Compound 45, N1-(2-(4,4-dimethylpiperidin-1-yl)pyrimidin-5-yl)cyclohexane-1,4-diamine]",0.1 to 100 nM
16,"CC1CN(c2ccc(NC[C@H]3CC[C@H](N)CC3)cc2F)CC(C)O1 (some centres unmarked) [Compound 430, N-(((1r,4r)-4-aminocyclohexyl)methyl)-4-(2,6-dimethylmorpholino)-3-fluoroaniline]",0.1 to 100 nM

row,Structure (SMILES),EC50
1,"CC1CN(c2ccc(NC[C@H]3CC[C@H](N)CC3)cc2C#N)CC(C)O1 (some centres unmarked) [Compound 468, 5-((((1r,4r)-4-aminocyclohexyl)methyl)amino)-2-(2,6-dimethylmorpholino)-benzonitrile]",0.1 to 100 nM
2,"CC(=O)NC1CCC(Nc2ccc(C3CCC(C)(C)CC3)cc2)CC1 (single isomer, unassigned) [Compound 157A, N-(4-((4-(4,4-dimethylcyclohexyl)phenyl)amino)cyclohexyl)acetamide]",0.1 to 100 nM
3,"Cc1nc(N2CCC(C(F)(F)F)CC2)ccc1NC[C@H]1CC[C@H](N)CC1 [Compound 371, N-(((1r,4r)-4-aminocyclohexyl)methyl)-2-methyl-6-(4-(trifluoromethyl)piperidin-1-yl)pyridin-3-amine]",0.1 to 100 nM
4,"CC1CN(c2ccc(NC[C@H]3CC[C@H](N)CC3)c(Cl)c2)CC(C)O1 (some centres unmarked) [Compound 483, N-(((1r,4r)-4-aminocyclohexyl)methyl)-2-chloro-4-(2,6-dimethylmorpholino) aniline]",0.1 to 100 nM
5,CC(C)(CN)Nc1ccc(C(C)(C)C)cc1 [Compound 229],1000 to 10000 nM
6,"CC1(C)CCC(c2ccc(NC3CCC(CN)CC3)cc2)CC1 (centres unmarked) [Compound 78, N-(4-(aminomethyl)cyclohexyl)-4-(4,4-dimethylcyclohexyl)aniline]",0.1 to 100 nM
7,"Cc1cc(N(C)C)ccc1NC[C@H]1CC[C@H](N)CC1 [Compound 393, N^1-(((1r,4r)-4-aminocyclohexyl)methyl)-N4,N4,2-trimethylbenzene-1,4-diamine]",0.1 to 100 nM
8,"CCN(CCCOC)c1ccc(NC[C@H]2CC[C@H](N)CC2)cc1 [Compound 385, N1-(((1r,4r)-4-aminocyclohexyl)methyl)-N4-ethyl-N4-(3-methoxypropyl) benzene-1,4-diamine]",100 to 1000 nM
9,"COc1nc(N2C[C@@H](C)O[C@@H](C)C2)ccc1NC[C@H]1CC[C@H](N)CC1 [Compound 511, N-(((1r,4R)-4-aminocyclohexyl)methyl)-6-((2S,6R)-2,6-dimethylmorpholino)-2-methoxypyridin-3-amine]",0.1 to 100 nM
10,"CC1CCN(c2ccc(NC3CCC(N)CC3)cc2)CC1 (centres unmarked) [Compound 60, N1-(4-(4-methylpiperidin-1-yl)phenyl)cyclohexane-1,4-diamine]",0.1 to 100 nM
11,"CC(C)C1CCN(c2ccc(NC3CCC(N)CC3)nn2)CC1 (centres unmarked) [Compound 411, N1-(6-(4-isopropylpiperidin-1-yl)pyridazin-3-yl)cyclohexane-1,4-diamine]",0.1 to 100 nM
12,CCN(CC)c1ccc(NC[C@H]2CC[C@H](N)CC2)cc1 [Compound 436],0.1 to 100 nM
13,"CC1CN(c2ccc(NC3CCC(N)CC3)cc2F)CC(C)O1 (centres unmarked) [Compound 456, N1-(4-(2,6-dimethylmorpholino)-3-fluorophenyl)cyclohexane-1,4-diamine]",100 to 1000 nM
14,"COCCCCOc1cc(NC2CCC(N)CC2)ccc1N1CCC(C(F)(F)F)CC1 (centres unmarked) [Compound 39, N1-(3-(4-methoxybutoxy)-4-(4-(trifluoromethyl)piperidin-1-yl)phenyl)cyclohexane-1,4-diamine]",0.1 to 100 nM
15,"CC(C)C1CCN(c2ncc(NC3CCC(C)(N)CC3)cn2)CC1 (centres unmarked) [Compound 50, N1-(2-(4-isopropylpiperidin-1-yl)pyrimidin-5-yl)-4-methylcyclohexane-1,4-diamine]",0.1 to 100 nM
16,"CN(C)CCCN1CCC(Nc2ccc(C3CCC(C)(C)CC3)cc2)CC1=O (centres unmarked) [Compound 247, 1-(3-(dimethylamino)propyl)-4-((4-(4,4-dimethylcyclohexyl)phenyl)amino)piperidin-2-one]",0.1 to 100 nM

# Same assay, conditions: Homo sapiens, HT-1080, 20 h, ferroptosis inducer RSL3, 20 hours, ferroptosis inhibitory activity, Table 3
row,Structure (SMILES),EC50
1,"Cc1cc(NC[C@H]2CC[C@H](N)CC2)ccc1NC(C)(C)C [Compound 622, N^4-(((1r,4r)-4-aminocyclohexyl)methyl)-N′-(tert-butyl)-2-methylbenzene-1,4-diamine]",0.1 to 100 nM
2,"NC1CC2(C1)CC(Nc1ccc3cc(N4CCOC(C(F)(F)F)C4)ccc3c1)C2 (centres unmarked) [Compound 653, N2-(6-(2-(trifluoromethyl)morpholino)naphthalen-2-yl)spiro[3.3]heptane-2,6-diamine]",0.1 to 100 nM
3,"Cc1nc(N2CC[Si](C)(C)CC2)ccc1NC1CC(N)C1 (centres unmarked) [Compound 608, N1-(6-(4,4-dimethyl-1,4-azasilinan-1-yl)-2-methylpyridin-3-yl)cyclobutane-1,3-diamine]",0.1 to 100 nM
4,"NC1CC2(C1)CC(Nc1ccc3nc(NCC(F)(F)F)ccc3c1)C2 (centres unmarked) [Compound 639, N^6-(6-aminospiro[3.3]heptan-2-yl)-N^2-(2,2,2-trifluoroethyl) quinoline-2,6-diamine]",0.1 to 100 nM
5,"CC1CN(c2ccc3cc(N[C@H]4CC[C@@H](C(N)=O)CC4)ccc3c2)CC(C)O1 (some centres unmarked) [Compound 632, (1s,4s)-4-((6-(2,6-dimethylmorpholino)naphthalen-2-yl)amino)cyclohexane-1-carboxamide]",0.1 to 100 nM
6,CC1CN(c2ccc3cc(NC4CC(N)C4(C)C)ccc3c2)CCO1 (centres unmarked) [Compound 661],0.1 to 100 nM
7,"CC[C@@H]1CN(c2ccc(N[C@H]3C[C@@H](N)C3)c(C)n2)C[C@H](C)O1 [Compound 618, (1s,3S)-N1-(6-((2R,6S)-2-ethyl-6-methylmorpholino)-2-methylpyridin-3-yl)cyclobutane-1,3-diamine]",100 to 1000 nM
8,"Cc1cc(N2CC(C)N(CC(F)(F)F)C(C)C2)ccc1NC1CC2(CC(N)C2)C1 (centres unmarked) [Compound 636, N2-(4-(3,5-dimethyl-4-(2,2,2-trifluoroethyl)piperazin-1-yl)-2-methylphenyl)spiro[3.3]heptane-2,6-diamine]",0.1 to 100 nM
9,"Cc1nc(N2CCN(C)C(C(F)(F)F)C2)ccc1NC1CC2(CC(N)C2)C1 (centres unmarked) [Compound 606, N2-(2-methyl-6-(4-methyl-3-(trifluoromethyl)piperazin-1-yl)pyridin-3-yl)spiro[3.3]heptane-2,6-diamine]",0.1 to 100 nM
10,"NC(=O)N1CCC(Nc2ccc3cc(N4CCC(C(F)(F)F)CC4)ccc3c2)CC1 [Compound 633, 4-((6-(4-(trifluoromethyl)piperidin-1-yl)naphthalen-2-yl)amino)piperidine-1-carboxamide]",0.1 to 100 nM

# Same assay, conditions: Homo sapiens, ferroptosis inducer RSL3, 20 hours, ferroptosis inhibitory activity, Table 2
row,Structure (SMILES),EC50
1,"CC(C)C1CCN(c2ncc(NC3CCC(CN)CC3)cn2)CC1 (centres unmarked) [Compound 24A, N-(4-(aminomethyl)cyclohexyl)-2-(4-isopropylpiperidin-1-yl)pyrimidin-5-amine]",0.1 to 100 nM
2,"CC1(C)CCC(c2ccc(NC3CCC(CNC(N)=O)CC3)cc2)CC1 (centres unmarked) [Compound 116, 1-((4-((4-(4,4-dimethylcyclohexyl)phenyl)amino)cyclohexyl)methyl)urea]",0.1 to 100 nM
